Measured values reported in PMC6756013, “B591, a novel specific pan-PI3K inhibitor, preferentially targets cancer stem cells” (Oncogene, 2019).

Key:
[1] = tested on: phosphorylation of Akt and ERK in RD cells; experiment: Immunoblotting of feedback activation of Akt and ERK; format: cell-based, human; settings: up to 24 h, B591 10 μM
Procedure: Fig. 2 B591 inhibits PI3K/Akt pathway in multiple cancer cell lines. a Representative images of Akt1 redistribution in IGF-1-treated cells in the absence or presence of B591. Scale bar represents 10 μm. Arrows indicate IGF-1-mediated membrane translocation detected by the image analysis algorithm. b Inhibition of mTORC1 and mTORC2 signaling in multiple cancer cell lines, exposed for 5 h to increasing concentrations of B591. c HepG2 cells were treated with DMSO or 20 μM of B591 for 5 h. Immunofluorescence (red) intensity reflects eIF4E subcellular distribution. Cells were visualized with high content reader. Representative images are shown, and scale bar represents 50 μm. d Nuclear-to-cytoplasmic ratio of eIF4E in five cancer cell lines was determined via high content reader. e The phosphorylation of AKT and ERK was determined by immunoblotting in RD cells in the presence of 10 μM of B591 after indicated time of exposure. f Inhibition of the phosphorylation of AKT and ERK in RD cells treated with B591, PI-103 or Rapamycin for 24 h was determined by immunoblotting
Despite a significant efficacy in preclinical models, the clinical tumor response to mTORC1 inhibitors, such as rapalogs, is modest. […]

[2] = tested on: CHO cells stably expressing EGFP-Akt1; experiment: Akt1 redistribution (IGF-1-stimulated membrane translocation of EGFP-Akt1); format: cell-based
From the text: Growth factors such as insulin-like growth factor 1 (IGF-1) and cytokines such as interleukin-6 stimulate and activate PI3K, leading to a subsequent increase of plasma membrane translocation and phosphorylation of Akt. Activated Akt promotes cell survival, cell growth and proliferation in human cancers.
Fig. 2 B591 inhibits PI3K/Akt pathway in multiple cancer cell lines. a Representative images of Akt1 redistribution in IGF-1-treated cells in the absence or presence of B591. Scale bar represents 10 μm. Arrows indicate IGF-1-mediated membrane translocation detected by the image analysis algorithm. b Inhibition of mTORC1 and mTORC2 signaling in multiple cancer cell lines, exposed for 5 h to increasing concentrations of B591. c HepG2 cells were treated with DMSO or 20 μM of B591 for 5 h. Immunofluorescence (red) intensity reflects eIF4E subcellular distribution. Cells were visualized with high content reader. Representative images are shown, and scale bar represents 50 μm. d Nuclear-to-cytoplasmic ratio of eIF4E in five cancer cell lines was determined via high content reader. e The phosphorylation of AKT and ERK was determined by immunoblotting in RD cells in the presence of 10 μM of B591 after indicated time of exposure. f Inhibition of the phosphorylation of AKT and ERK in RD cells treated with B591, PI-103 or Rapamycin for 24 h was determined by immunoblotting […]

[3] = tested on: PIP3/PI(4,5)P2 ratio in HCT116 cells; experiment: Cellular PI3K kinase assay (PIP3 and PI(4,5)P2 ELISA); format: cell-based; settings: 10 h treatment
Procedure: Cells were seeded at density of 3 × 10^7 cells/150 mm dish. After treatment with different concentrations of B591 for 10 h, the media was removed and 10 ml of ice-cold 0.5 M TCA was immediately added. Incubate cells on ice for 5 min. Cells were scraped and centrifuged at 3000 rpm for 7 min at 4 ℃. The pellet was resuspended in 3 ml of 5% […] acid/1 mM EDTA, vortexed for 30 s, and centrifuged at 3000 rpm for 5 min. The supernatant was discarded and the cells was washed one more time. Afterward, neutral lipids were extracted adding 3 ml of MeOH:CHCl3 (2:1) and continuously vortexing for 10 min at room temperature. Extracts were centrifuged at 3000 rpm for 5 min, the supernatant was discarded, and this extraction step was repeated one more time. The acidic lipids were extracted adding 2.25 ml MeOH:CHCl3:12 M HCl (80:40:1) with continuous vortexing over 25 min at room temperature. Extracts were centrifuged at 3000 rpm for 5 min and the supernatant was transferred to a new 15 ml tube; 0.75 ml of CHCl3 and 1.35 ml of 0.1 M HCl were added to the supernatant, vortexed, and centrifuged at 3000 rpm for 5 min to separate organic and aqueous phases. […] Once phospholipids were isolated from cells, PIP3 and PI(4,5)P2 levels were measured using ELISA kits (Echelon, K-2500s and K4500) according to the manufacturer’s instructions.

[4] = tested on: MDA-MB-231 and SUM-159PT monolayer and mammosphere cells; experiment: Proliferation inhibition of monolayer versus mammosphere cells; format: cell-based, human
Procedure: The proliferation inhibitory activities of B591 were compared between monolayer and mammosphere cells.
Cells were treated with indicated agents for 48 h, and cells were harvested and processed for apoptosis assay using the PE-Annexin V/7-AAD Apoptosis Detection Kit. d Representative flow cytometry plots of apoptosis inducing activity of B591 (10 μM) and paclitaxel (10 nM) on monolayer and mammosphere MDA-MB-231 cells. e B591 preferentially targeted CD44^high/CD24^low cells. Cells were treated with B591 or paclitaxel for 2 days. Following a 4-day recovery period, cells were co-stained with CD44 and CD24 antibodies and subjected to FACS analysis. Representative flow cytometry plots show the effect of B591 on CD44^high/CD24^low population in MDA-MB-231 cells in vitro. f B591 decreased mammosphere forming efficiency. Primary MDA-MB-231 mammospheres were treated with B591 or paclitaxel for 48 h. Results of the secondary mammosphere-formation assay are shown. Scale bar represents 40 μm. g B591 decreased the expression of CSC markers in MDA-MB-231 cells. Cells were treated with B591 or paclitaxel for 2 days. […] They label a gated population in plots with axes CD44 and CD24. / Panel E: DMSO is the vehicle control. Its printed value is included all the same.

IC50 for decrease of PIP3/PI(4,5)P2 ratio [3]: 1910 nM
Compound: Cc1cc2c(cc1C)[n+](Cc1ccccc1Br)cn2Cc1ccc2c(c1)CCO2.[Br-] [B591, 3-(2-bromobenzyl)-1-((2,3-dihydrobenzofuran-5-yl)methyl) -5,6-dimethyl-1H-benzo[d]imidazol-3-ium bromide]
Phosphorylation of Akt and ERK [1]: effectively suppressed the phosphorylation of Akt and ERK over the whole time course of 24 h | IGF-1-stimulated translocation of Akt to the plasma membrane [2]: potently prevented this translocation event in a concentration-dependent manner | Proliferation inhibitory activity, mammosphere versus monolayer cells [4]: more potent against mammosphere cells
